{"source": "patent US20050064462A1", "about": "“Methods, compositions, and kits for predicting the effect of compounds on hot flash symptoms” (priority 2003, published 2005)", "key": {"[1]": {"system": "D-binding protein", "assay": "Differential gene expression in a cell following contact with reference compounds: D-binding protein", "type": "cell-based", "conditions": "accession J03179; cell expressing estrogen receptor or estrogen related receptor, after contact with compound", "excerpt": "(§1) The expression of any gene known by one of skill in the art to be associated with hot flash symptoms, without limitation, can be assessed in the methods of the invention. The present invention provides numerous such genes as described in detail, below. Further, additional genes that are associated with hot flash symptoms can readily be identified by one of skill in the art according to the disclosure of the present invention. For example, a cell that expresses the estrogen receptor or estrogen related receptor can be contacted with a reference compound known to affect hot flash symptoms. The overall expression of genes in the cell following contact with the reference compound can be compared to the overall expression of genes in a similar cell that has not been contacted with the reference compound.\n(§2) The expression of such genes to identify genes that are differentially expressed following contact with a compound with a known effect on hot flash symptoms can be monitored by any convenient method known by one of skill in the art. Most advantageously, the expression of many genes, e.g., thousands of genes, is monitored at once using a high throughput method for assessing expression of genes in the presence and absence of compounds known to affect hot flash symptoms. […]"}, "[2]": {"system": "N27", "assay": "Differential gene expression in a cell following contact with reference compounds: N27", "type": "cell-based", "conditions": "accession AI014169; cell expressing estrogen receptor or estrogen related receptor, after contact with compound", "excerpt": "as §1, §2"}, "[3]": {"system": "Type II Hexokinase", "assay": "Differential gene expression in a cell following contact with reference compounds: Type II Hexokinase", "type": "cell-based", "conditions": "accession D26393; cell expressing estrogen receptor or estrogen related receptor, after contact with compound", "excerpt": "as §1, §2"}, "[4]": {"system": "Annexin 1", "assay": "Differential gene expression in a cell following contact with reference compounds: Annexin 1", "type": "cell-based", "conditions": "accession AI171962; cell expressing estrogen receptor or estrogen related receptor, after contact with compound", "excerpt": "as §1, §2"}, "[5]": {"system": "Protein Tyrosine Phosphatase BAD2", "assay": "Differential gene expression in a cell following contact with reference compounds: BAD2", "type": "cell-based", "conditions": "accession U02553; cell expressing estrogen receptor or estrogen related receptor, after contact with compound", "excerpt": "as §1, §2"}, "[6]": {"system": "hot flash symptoms", "conditions": "cited from earlier work"}, "[7]": {"system": "Protein Kinase C type I", "assay": "Differential gene expression in a cell following contact with reference compounds: Protein Kinase C type I", "type": "cell-based", "conditions": "accession M13707; cell expressing estrogen receptor or estrogen related receptor, after contact with compound", "excerpt": "as §1, §2"}, "[8]": {"system": "HMG-box containing protein 1", "assay": "Differential gene expression in a cell following contact with reference compounds: HBP1", "type": "cell-based", "conditions": "accession U09551; cell expressing estrogen receptor or estrogen related receptor, after contact with compound", "excerpt": "as §1, §2"}, "[9]": {"system": "FE65 adaptor protein interacting with beta-amyloid precursor protein intracellular domain", "assay": "Differential gene expression in a cell following contact with reference compounds: FE65", "type": "cell-based", "conditions": "accession X60469; cell expressing estrogen receptor or estrogen related receptor, after contact with compound", "excerpt": "as §1, §2"}, "[10]": {"system": "Multi Drug Resistance Gene", "assay": "Differential gene expression in a cell following contact with reference compounds: Multi Drug Resistance Gene", "type": "cell-based", "conditions": "accession M81855; cell expressing estrogen receptor or estrogen related receptor, after contact with compound", "excerpt": "as §1, §2"}, "[11]": {"system": "Calpain", "assay": "Differential gene expression in a cell following contact with reference compounds: Calpain", "type": "cell-based", "conditions": "accession D14478; cell expressing estrogen receptor or estrogen related receptor, after contact with compound", "excerpt": "as §1, §2"}, "[12]": {"system": "EST196325", "assay": "Differential gene expression in a cell following contact with reference compounds: EST196325", "type": "cell-based", "conditions": "accession AA892522; cell expressing estrogen receptor or estrogen related receptor, after contact with compound", "excerpt": "as §1, §2"}, "[13]": {"system": "Activin Beta E", "assay": "Differential gene expression in a cell following contact with reference compounds: Activin Beta E", "type": "cell-based", "conditions": "accession AF089825; cell expressing estrogen receptor or estrogen related receptor, after contact with compound", "excerpt": "as §1, §2"}, "[14]": {"system": "Interleukin-18", "assay": "Differential gene expression in a cell following contact with reference compounds: Interleukin-18", "type": "cell-based", "conditions": "accession AJ222813; cell expressing estrogen receptor or estrogen related receptor, after contact with compound", "excerpt": "as §1, §2"}, "[15]": {"system": "ARL gene 4", "assay": "Differential gene expression in a cell following contact with reference compounds: ARL gene 4", "type": "cell-based", "conditions": "accession X77235; cell expressing estrogen receptor or estrogen related receptor, after contact with compound", "excerpt": "as §1, §2"}, "[16]": {"system": "Argininosuccinate Synthetase", "assay": "Differential gene expression in a cell following contact with reference compounds: Argininosuccinate Synthetase", "type": "cell-based", "conditions": "accession X12459; cell expressing estrogen receptor or estrogen related receptor, after contact with compound", "excerpt": "as §1, §2"}, "[17]": {"system": "2-alpha-1 globin", "assay": "Differential gene expression in a cell following contact with reference compounds: 2-alpha-1 globin", "type": "cell-based", "conditions": "accession X56325; cell expressing estrogen receptor or estrogen related receptor, after contact with compound", "excerpt": "as §1, §2"}, "[18]": {"system": "Prolactin", "assay": "Differential gene expression in a cell following contact with reference compounds: Prolactin", "type": "cell-based", "conditions": "accession AI175539; cell expressing estrogen receptor or estrogen related receptor, after contact with compound", "excerpt": "as §1, §2"}, "[19]": {"system": "Parvalbumin", "assay": "Differential gene expression in a cell following contact with reference compounds: Parvalbumin", "type": "cell-based", "conditions": "accession AF022935; cell expressing estrogen receptor or estrogen related receptor, after contact with compound", "excerpt": "as §1, §2"}, "[20]": {"system": "Interleukin-1 β-converting enzyme-related protease CPP32", "assay": "Differential gene expression in a cell following contact with reference compounds: CPP32", "type": "cell-based", "conditions": "accession U84410; cell expressing estrogen receptor or estrogen related receptor, after contact with compound", "excerpt": "as §1, §2"}, "[21]": {"system": "Ribonucleoside Reductase Nuclear Receptor", "assay": "Differential gene expression in a cell following contact with reference compounds: RNR-1", "type": "cell-based", "conditions": "accession L08595; cell expressing estrogen receptor or estrogen related receptor, after contact with compound", "excerpt": "as §1, §2"}, "[22]": {"system": "EST208064", "assay": "Differential gene expression in a cell following contact with reference compounds: EST208064", "type": "cell-based", "conditions": "accession AI013389; cell expressing estrogen receptor or estrogen related receptor, after contact with compound", "excerpt": "as §1, §2"}}, "note": "“Also recorded” adds a separate entry of the source.", "data": [{"compound": "4-hydroxy tamoxifen", "values": [{"measurement": "Effect on Expression of D-binding protein", "setting": "[1]", "value": "Upregulated"}, {"measurement": "Effect on Expression of N27 (EST 207724)", "setting": "[2]", "value": "Upregulated"}, {"measurement": "Effect on Expression of Type II Hexokinase (HKII)", "setting": "[3]", "value": "downregulation"}, {"measurement": "Effect on Expression of Annexin 1 (EST 21795)", "setting": "[4]", "value": "Upregulated"}, {"measurement": "Effect on Expression of Protein Tyrosine Phosphatase BAD2", "setting": "[5]", "value": "downregulation"}, {"measurement": "known effect on the incidence of hot flash symptoms", "setting": "[6]; when administered to a subject", "value": "increasing effect on hot flash symptoms; also recorded: increase the incidence of hot flash symptoms"}, {"measurement": "Effect on Expression of Protein Kinase C type I (PKC type I)", "setting": "[7]", "value": "Upregulated"}, {"measurement": "Effect on Expression of HMG-box containing protein 1 (HBP1)", "setting": "[8]", "value": "Upregulated"}]}, {"compound": "O=C(c1ccc(OCCN2CCCCC2)cc1)c1c(-c2ccc(O)cc2)sc2cc(O)ccc12", "note": "[Raloxifene, raloxifene]", "values": [{"measurement": "Effect on Expression of D-binding protein", "setting": "[1]", "value": "Upregulated"}, {"measurement": "Effect on Expression of N27 (EST 207724)", "setting": "[2]", "value": "Upregulated"}, {"measurement": "Effect on Expression of FE65 adaptor protein interacting with beta-amyloid precursor protein intracellular domain (FE65)", "setting": "[9]", "value": "Upregulated"}, {"measurement": "Effect on Expression of Annexin 1 (EST 21795)", "setting": "[4]", "value": "Upregulated"}, {"measurement": "subjects experiencing hot flash symptoms of sufficient severity to discontinue therapy", "setting": "[6]; administered in the treatment of osteoporosis", "value": "approximately 11%"}, {"measurement": "Effect on Expression of Protein Kinase C type I (PKC type I)", "setting": "[7]", "value": "Upregulated"}, {"measurement": "Effect on Expression of HMG-box containing protein 1 (HBP1)", "setting": "[8]", "value": "Upregulated"}]}, {"compound": "C#C[C@]1(O)CC[C@H]2[C@@H]3[C@H](C)CC4=C(CCC(=O)C4)[C@H]3CC[C@@]21C", "note": "[Tibolone, tibolone]", "values": [{"measurement": "Effect on Expression of Multi Drug Resistance Gene (MDR)", "setting": "[10]", "value": "Upregulated"}, {"measurement": "Effect on Expression of Type II Hexokinase (HKII)", "setting": "[3]", "value": "Upregulated"}, {"measurement": "Effect on Expression of Calpain", "setting": "[11]", "value": "Upregulated"}, {"measurement": "Effect on Expression of EST196325", "setting": "[12]", "value": "Upregulated"}, {"measurement": "Effect on Expression of Activin Beta E", "setting": "[13]", "value": "Upregulated"}, {"measurement": "Effect on Expression of Interleukin-18 (IL-18)", "setting": "[14]", "value": "Upregulated"}, {"measurement": "Effect on Expression of ARL gene 4", "setting": "[15]", "value": "Upregulated"}, {"measurement": "Effect on Expression of Protein Tyrosine Phosphatase BAD2", "setting": "[5]", "value": "Upregulated"}, {"measurement": "Effect on Expression of Argininosuccinate Synthetase", "setting": "[16]", "value": "Upregulated"}, {"measurement": "Effect on Expression of 2-alpha-1 globin", "setting": "[17]", "value": "Upregulated"}, {"measurement": "Effect on Expression of Prolactin", "setting": "[18]", "value": "Upregulated"}, {"measurement": "Effect on Expression of Parvalbumin", "setting": "[19]", "value": "Upregulated"}, {"measurement": "Effect on Expression of Interleukin-1 β-converting enzyme-related protease CPP32", "setting": "[20]", "value": "Upregulated"}, {"measurement": "Effect on Expression of Ribonucleoside Reductase Nuclear Receptor (RNR-1)", "setting": "[21]", "value": "Upregulated"}, {"measurement": "Effect on Expression of EST208064", "setting": "[22]", "value": "Upregulated"}]}]}
